pEC50: −log10 of the molar value.
Each compound was assayed on U2OS_Bim cells (assay: Apoptosis inhibition assay (Bim-induced apoptosis, cell viability by ATP level)). Settings: U2OS_Bim cells; estimated based on preliminary results; numbering of Tables 4a/4b; read-out: EC50.
Format: cell-based
Procedure, shortened: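 Apoptosis was triggered by doxycycline (0.1 μg/mL) induction of Bim, one hour after compound addition to U2OS_Bim cells. Survival was measured after 24 h from cellular ATP (CellTiter-Glo), relative to DMSO, with zVAD at 20 μM as rescue control. Data are duplicate means, some estimated from preliminary results.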

Row | pEC50 | SMILES
1 | > 5.00 | COc1ccc(Cn2cc(-c3cc(C(F)(F)F)nc([S+]([O-])Cc4ccccn4)n3)ccc2=O)cc1OC (stereo not drawn) [Compound 187]
2 | > 5.00 | COc1ccc(Cn2cc(-c3cc(C(F)(F)F)nc(S(=O)(=O)Cc4cccnc4)n3)ccc2=O)cc1OC [Compound 188]
3 | > 5.00 | COc1ccc(Cn2cc(-c3cc(C(F)(F)F)nc(S(=O)(=O)Cc4ccccn4)n3)ccc2=O)cc1OC [Compound 189]
4 | > 5.00 | COc1ccc(Cn2cc(-c3cc(C(F)(F)F)nc(S(=O)(=O)Cc4ccncc4)n3)ccc2=O)cc1OC [Compound 190]
5 | > 5.00 | COc1ccc(Cn2cc(-c3cc(C(F)(F)F)nc([S+]([O-])Cc4ccncc4)n3)ccc2=O)cc1OC (stereo not drawn) [Compound 191]
6 | > 5.00 | COc1ccc(Cn2cc(-c3cc(C(F)(F)F)nc([S+]([O-])Cc4cccnc4)n3)ccc2=O)cc1OC (stereo not drawn) [Compound 192]
7 | > 5.00 | COc1ccc(Cn2cc(-c3cc(C(F)(F)F)nc([S+]([O-])Cn4ncnn4)n3)ccc2=O)cc1OC (stereo not drawn) [Compound 193]
8 | > 5.00 | COc1ccc(Cn2cc(-c3cc(C(F)(F)F)nc(S(=O)(=O)CN4CCCC4)n3)ccc2=O)cc1OC [Compound 194]
9 | > 5.00 | COc1ccc(Cn2cc(-c3cc(C(F)(F)F)nc(S(=O)(=O)Cn4ncnn4)n3)ccc2=O)cc1OC [Compound 195]
10 | > 5.00 | COc1ccc(Cn2cc(-c3cc(C(F)(F)F)nc(S(=O)(=O)CN4CCCCC4)n3)ccc2=O)cc1OC [Compound 196]
11 | > 5.00 | COc1ccc(Cn2cc(-c3cc(C(F)(F)F)nc([S+]([O-])CN4CCCCC4)n3)ccc2=O)cc1OC (stereo not drawn) [Compound 197]
12 | > 5.00 | COc1ccc(Cn2cc(-c3cc(C(F)(F)F)nc([S+]([O-])CN4CCCC4)n3)ccc2=O)cc1OC (stereo not drawn) [Compound 198]
13 | > 5.00 | COc1ccc(Cn2cc(-c3cc(C(F)(F)F)nc(S(=O)(=O)CN(C)C)n3)ccc2=O)cc1OC [Compound 199]
14 | > 5.00 | COc1ccc(Cn2cc(-c3cc(C(F)(F)F)nc([S+]([O-])CN(C)C)n3)ccc2=O)cc1OC (stereo not drawn) [Compound 200]
15 | > 5.00 | COc1ccc(Cn2cc(-c3cc(F)nc(S(C)(=O)=O)n3)ccc2=O)cc1OC [Compound 201, 1-(3,4-dimethoxybenzyl)-5-(6-fluoro-2-(methylsulfonyl)pyrimidin-4-yl)pyridin-2 (1H)-one]

Same assay, conditions: U2OS_Bim cells; means of duplicates; numbering of Tables 4a/4b; read-out: EC50

Row | pEC50 | SMILES
16 | 6.00 to 9.00 | COc1cccc(CS(=O)(=O)c2nc(-c3ccc(=O)n(Cc4ccc(OC)c(OC)c4)c3)cc(C(F)F)n2)c1 [Compound 172, 5-(6-(difluoromethyl)-2-((3-methoxybenzyl)sulfonyl)pyrimidin-4-yl)-1-(3,4-dimethoxybenzyl)pyridin-2 (1H)-one]
17 | 5.00 to 6.00 | COc1cccc(C[S+]([O-])c2nc(-c3ccc(=O)n(Cc4ccc(OC)c(OC)c4)c3)cc(C(F)F)n2)c1 (stereo not drawn) [Compound 173, 5-(6-(difluoromethyl)-2-((3-methoxybenzyl)sulfinyl)pyrimidin-4-yl)-1-(3,4-dimethoxybenzyl)pyridin-2 (1H)-one]
18 | 6.00 to 9.00 | COc1cccc(S(=O)(=O)c2nc(-c3ccc(=O)n(Cc4ccc(OC)c(OC)c4)c3)cc(C(F)F)n2)c1 [Compound 174, 5-(6-(difluoromethyl)-2-((3-methoxyphenyl)sulfonyl)pyrimidin-4-yl)-1-(3,4-dimethoxybenzyl)pyridin-2 (1H)-one]
19 | 6.00 to 9.00 | COc1cccc([S+]([O-])c2nc(-c3ccc(=O)n(Cc4ccc(OC)c(OC)c4)c3)cc(C(F)F)n2)c1 (stereo not drawn) [Compound 175, 5-(6-(difluoromethyl)-2-((3-methoxyphenyl)sulfinyl)pyrimidin-4-yl)-1-(3,4-dimethoxybenzyl)pyridin-2 (1H)-one]
20 | 5.00 to 6.00 | CNC(=O)CCCS(=O)(=O)c1nc(-c2ccc(=O)n(Cc3ccc(OC)c(OC)c3)c2)cc(C(F)F)n1 [Compound 176, 4-((4-(difluoromethyl)-6-(1-(3,4-dimethoxybenzyl)-6-oxo-1,6-dihydropyridin-3-yl)pyrimidin-2-yl)sulfonyl)-N-methylbutanamide]
21 | > 4.00 | CNC(=O)CCC[S+]([O-])c1nc(-c2ccc(=O)n(Cc3ccc(OC)c(OC)c3)c2)cc(C(F)F)n1 (stereo not drawn) [Compound 177, 4-((4-(difluoromethyl)-6-(1-(3,4-dimethoxybenzyl)-6-oxo-1,6-dihydropyridin-3-yl)pyrimidin-2-yl)sulfinyl)-N-methylbutanamide]
22 | 6.00 to 9.00 | CNS(=O)(=O)CCCS(=O)(=O)c1nc(-c2ccc(=O)n(Cc3ccc(OC)c(OC)c3)c2)cc(C(F)F)n1 [Compound 178, 3-((4-(difluoromethyl)-6-(1-(3,4-dimethoxybenzyl)-6-oxo-1,6-dihydropyridin-3-yl)pyrimidin-2-yl)sulfonyl)-N-methylpropane-1-sulfonamide]
23 | > 4.00 | CNS(=O)(=O)CCC[S+]([O-])c1nc(-c2ccc(=O)n(Cc3ccc(OC)c(OC)c3)c2)cc(C(F)F)n1 (stereo not drawn) [Compound 179, 3-((4-(difluoromethyl)-6-(1-(3,4-dimethoxybenzyl)-6-oxo-1,6-dihydropyridin-3-yl)pyrimidin-2-yl)sulfinyl)-N-methylpropane-1-sulfonamide]
24 | 6.00 to 9.00 | COc1ccc(Cn2cc(-c3cc(C(F)F)nc(S(=O)(=O)c4cccc(N)c4)n3)ccc2=O)cc1OC [Compound 180, 5-(2-((3-aminophenyl)sulfonyl)-6-(difluoromethyl)pyrimidin-4-yl)-1-(3,4-dimethoxybenzyl)pyridin-2 (1H)-one]
25 | 6.00 to 9.00 | COc1ccc(Cn2cc(-c3cc(C(F)F)nc([S+]([O-])c4cccc(N)c4)n3)ccc2=O)cc1OC (stereo not drawn) [Compound 181, 5-(2-((3-aminophenyl)sulfinyl)-6-(difluoromethyl)pyrimidin-4-yl)-1-(3,4-dimethoxybenzyl)pyridin-2 (1H)-one]
26 | 6.00 to 9.00 | COc1ccc(Cn2cc(-c3cc(C(F)F)nc(S(=O)(=O)c4cccc(NC(C)=O)c4)n3)ccc2=O)cc1OC [Compound 182, N-(3-((4-(difluoromethyl)-6-(1-(3,4-dimethoxybenzyl)-6-oxo-1,6-dihydropyridin-3-yl)pyrimidin-2-yl)sulfonyl)phenyl)acetamide]
27 | 6.00 to 9.00 | CCCCCCNC(=O)CCCS(=O)(=O)c1nc(-c2ccc(=O)n(Cc3ccc(OC)c(OC)c3)c2)cc(C(F)F)n1 [Compound 183, 4-((4-(difluoromethyl)-6-(1-(3,4-dimethoxybenzyl)-6-oxo-1,6-dihydropyridin-3-yl)pyrimidin-2-yl)sulfonyl)-N-hexylbutanamide]
28 | 6.00 to 9.00 | CCCCCCNC(=O)CCC[S+]([O-])c1nc(-c2ccc(=O)n(Cc3ccc(OC)c(OC)c3)c2)cc(C(F)F)n1 (stereo not drawn) [Compound 184, 4-((4-(difluoromethyl)-6-(1-(3,4-dimethoxybenzyl)-6-oxo-1,6-dihydropyridin-3-yl)pyrimidin-2-yl)sulfinyl)-N-hexylbutanamide]
29 | 5.00 to 6.00 | COc1ccc(Cn2cc(-c3cc(C(F)F)nc(S(=O)(=O)CCCNC(C)=O)n3)ccc2=O)cc1OC [Compound 185, N-(3-((4-(difluoromethyl)-6-(1-(3,4-dimethoxybenzyl)-6-oxo-1,6-dihydropyridin-3-yl)pyrimidin-2-yl)sulfonyl)propyl)acetamide]
30 | 6.00 to 9.00 | COc1ccc(Cn2cc(-c3cc(C(F)F)nc(S(=O)(=O)CCCS(=O)(=O)c4nc(-c5ccc(=O)n(Cc6ccc(OC)c(OC)c6)c5)cc(C(F)F)n4)n3)ccc2=O)cc1OC [Compound 186, 5,5′-(2,2′-(propane-1,3-diyldisulfonyl)bis(6-(difluoromethyl)pyrimidine-4,2-diyl))bis(1-(3,4-dimethoxybenzyl)pyridin-2 (1H)-one)]

— patent US11725000B2, “Apoptosis inhibitors” (National Institute of Biological Sciences, Beijing, priority 2017, dated 2023)
